Laboratory results taken from US6737383B1, “Herbicidal oxadiazolidines” (priority 1999, dated 2004).

How the values were obtained:
bedstraw = test: Test B pre/postemergence bedstraw; assay type: in vivo, Galium aparine; settings: for Bedstraw plant response rating: Rate 500 g/ha
Outline: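 Test chemicals in a non-phytotoxic solvent mixture with surfactant were sprayed preemergence onto planted seeds and postemergence onto plants 2 to 18 cm tall (1- to 4-leaf stage). After twelve to sixteen days in a greenhouse, injury was visually rated against untreated controls from 0 (no effect) to 10 (complete control).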

blackgrass = test: Test B pre/postemergence blackgrass; assay type: in vivo, Alopecurus myosuroides
From the text: (§1) Seeds of bedstraw (Galium aparine), blackgrass (Alopecurus myosuroides), surinam grass (Brachiaria decumbens), cocklebur (Xanthium strumarium), corn (Zea mays), crabgrass (Digitaria sanguinalis), giant foxtail (Setaria faberii), morningglory (Ipomoea hederacea), pigweed (Amaranthus retroflexus), rape (Brassica napus), soybean (Glycine max), sugar beet (Beta vulgaris), velvetleaf (Abutilon theophrasti), wheat (Triticum aestivum), wild oat (Avena fatua) and purple nutsedge (Cyperus rotundus) tubers were planted and treated preemnergence with test chemicals formulated in a non-phytotoxic solvent mixture which included a surfactant.
(§2) At the same time, these crop and weed species were also treated with postemergence applications of test chemicals formulated in the same manner. Plants ranged in height from 2 to 18 cm (1- to 4-leaf stage) for postemergence treatments. Plant species in the flood test consisted of rice (Oryza sativa), smallflower flatsedge (Cyperus difformis), duck salad (Heteranthera limosa) and bamyardgrass (Echinochloa crus-galli) grown to the 2-leaf stage for testing. Treated plants and controls were maintained in a greenhouse for twelve to sixteen days, after which all species were compared to controls and visually evaluated. Plant response ratings, summarized in Table B, are based on a scale of 0 to 10 where 0 is no effect and 10 is complete control. A dash (−) response means no test result.

surinam grass = test: Test B pre/postemergence surinam grass; assay type: in vivo, Brachiaria decumbens
From the text: as §1, §2

cocklebur = test: Test B pre/postemergence cocklebur; assay type: in vivo, Xanthium strumarium
From the text: as §1, §2

corn = test: Test B pre/postemergence corn; assay type: in vivo, Zea mays
From the text: as §1, §2

crabgrass = test: Test B pre/postemergence crabgrass; assay type: in vivo, Digitaria sanguinalis
From the text: as §1, §2

giant foxtail = test: Test B pre/postemergence giant foxtail; assay type: in vivo, Setaria faberii
From the text: as §1, §2

morningglory = test: Test B pre/postemergence morningglory; assay type: in vivo, Ipomoea hederacea
From the text: as §1, §2

pigweed = test: Test B pre/postemergence pigweed; assay type: in vivo, Amaranthus retroflexus
From the text: as §1, §2

rape = test: Test B pre/postemergence rape; assay type: in vivo, Brassica napus
From the text: as §1, §2

soybean = test: Test B pre/postemergence soybean; assay type: in vivo, Glycine max
From the text: as §1, §2

sugar beet = test: Test B pre/postemergence sugar beet; assay type: in vivo, Beta vulgaris
From the text: as §1, §2

velvetleaf = test: Test B pre/postemergence velvetleaf; assay type: in vivo, Abutilon theophrasti
From the text: as §1, §2

wheat = test: Test B pre/postemergence wheat; assay type: in vivo, Triticum aestivum
From the text: as §1, §2

wild oat = test: Test B pre/postemergence wild oat; assay type: in vivo, Avena fatua
From the text: as §1, §2

purple nutsedge = test: Test B pre/postemergence purple nutsedge; assay type: in vivo, Cyperus rotundus
From the text: as §1, §2

[1] = Preemergence, Rate 62 g/ha, scale 0 to 10, 0 is no effect, 10 is complete control
[2] = Preemergence, Rate 125 g/ha, scale 0 to 10 (0 no effect, 10 complete control)
[3] = Preemergence, Rate 250 g/ha, scale of 0 to 10 where 0 is no effect and 10 is complete control
[4] = Postemergence, Rate 62 g/ha, scale 0 to 10, 0 is no effect, 10 is complete control
[5] = Postemergence, Rate 250 g/ha, scale 0 to 10, 0 no effect, 10 complete control
[6] = Preemergence, Rate 500 g/ha, scale 0 (no effect) to 10 (complete control)
[7] = Rate 125 g/ha, Postemergence, scale 0 to 10, 0 no effect, 10 complete control
[8] = Rate 500 g/ha, Postemergence, 0 to 10 scale (0 no effect, 10 complete control)

Compound: Cc1ccccc1-n1c(=O)on(C(=O)N(c2ccc(C(F)(F)F)cc2)C(C)C)c1=O [Compound 39]
- Plant response rating, Bedstraw (bedstraw; [1]): 0
- Plant response rating, Bedstraw (bedstraw; [2]): 0
- Plant response rating, Bedstraw (bedstraw; [3]): 0
- Bedstraw plant response rating (bedstraw; Preemergence, scale 0 (no effect) to 10 (complete control)): 0
- Bedstraw plant response rating (bedstraw; Postemergence, 0 to 10 scale (0 no effect, 10 complete control)): 0
- Blackgrass plant response rating (blackgrass; [4]): 0
- Blackgrass plant response rating (blackgrass; [5]): 0
- Plant response rating, Blackgrass (blackgrass; [1]): 0
- Plant response rating, Blackgrass (blackgrass; [2]): 0
- Plant response rating, Blackgrass (blackgrass; [3]): 0
- Blackgrass plant response rating (blackgrass; [6]): 0
- Blackgrass plant response rating (blackgrass; [7]): 0
- Blackgrass plant response rating (blackgrass; [8]): 0
- B. signalgrass plant response rating (surinam grass; [4]): 0
- B. signalgrass plant response rating (surinam grass; [5]): 0
- Plant response rating, B. signalgrass (surinam grass; [1]): 0
- Plant response rating, B. signalgrass (surinam grass; [2]): 0
- Plant response rating, B. signalgrass (surinam grass; [3]): 0
- B. signalgrass plant response rating (surinam grass; [6]): 0
- B. signalgrass plant response rating (surinam grass; [7]): 0
- B. signalgrass plant response rating (surinam grass; [8]): 0
- Cocklebur plant response rating (cocklebur; [4]): 0
- Cocklebur plant response rating (cocklebur; [5]): 0
- Plant response rating, Cocklebur (cocklebur; [1]): 0
- Plant response rating, Cocklebur (cocklebur; [2]): 0
- Plant response rating, Cocklebur (cocklebur; [3]): 0
- Cocklebur plant response rating (cocklebur; [6]): 0
- Cocklebur plant response rating (cocklebur; [7]): 0
- Cocklebur plant response rating (cocklebur; [8]): 0
- Corn plant response rating (corn; [4]): 0
- Corn plant response rating (corn; [5]): 0
- Plant response rating, Corn (corn; [1]): 0
- Plant response rating, Corn (corn; [2]): 0
- Plant response rating, Corn (corn; [3]): 0
- Corn plant response rating (corn; [6]): 0
- Corn plant response rating (corn; [7]): 0
- Corn plant response rating (corn; [8]): 0
- Crabgrass plant response rating (crabgrass; [4]): 0
- Crabgrass plant response rating (crabgrass; [5]): 3
- Plant response rating, Crabgrass (crabgrass; [1]): 0
- Plant response rating, Crabgrass (crabgrass; [2]): 3
- Plant response rating, Crabgrass (crabgrass; [3]): 5
- Crabgrass plant response rating (crabgrass; [6]): 6
- Crabgrass plant response rating (crabgrass; [7]): 0
- Crabgrass plant response rating (crabgrass; [8]): 4
- Giant foxtail plant response rating (giant foxtail; [4]): 0
- Giant foxtail plant response rating (giant foxtail; [5]): 0
- Plant response rating, Giant foxtail (giant foxtail; [1]): 0
- Plant response rating, Giant foxtail (giant foxtail; [2]): 0
- Giant foxtail plant response rating (giant foxtail; [6]): 10
- Giant foxtail plant response rating (giant foxtail; [7]): 0
- Giant foxtail plant response rating (giant foxtail; [8]): 0
- Morningglory plant response rating (morningglory; [4]): 0
- Morningglory plant response rating (morningglory; [5]): 0
- Plant response rating, Morningglory (morningglory; [1]): 0
- Plant response rating, Morningglory (morningglory; [2]): 0
- Plant response rating, Morningglory (morningglory; [3]): 0
- Morningglory plant response rating (morningglory; [6]): 0
- Morningglory plant response rating (morningglory; [7]): 0
- Morningglory plant response rating (morningglory; [8]): 0
- Redroot pigweed plant response rating (pigweed; [4]): 0
- Redroot pigweed plant response rating (pigweed; [5]): 0
- Plant response rating, Redroot pigweed (pigweed; [1]): 0
- Plant response rating, Redroot pigweed (pigweed; [2]): 5
- Plant response rating, Redroot pigweed (pigweed; [3]): 6
- Redroot pigweed plant response rating (pigweed; [6]): 6
- Redroot pigweed plant response rating (pigweed; [7]): 0
- Redroot pigweed plant response rating (pigweed; [8]): 0
- Rape plant response rating (rape; [4]): 0
- Rape plant response rating (rape; [5]): 0
- Plant response rating, Rape (rape; [1]): 2
- Plant response rating, Rape (rape; [2]): 0
- Plant response rating, Rape (rape; [3]): 0
- Rape plant response rating (rape; [6]): 0
- Rape plant response rating (rape; [7]): 0
- Rape plant response rating (rape; [8]): 0
- Soybean plant response rating (soybean; [4]): 3
- Soybean plant response rating (soybean; [5]): 4
- Plant response rating, Soybean (soybean; [1]): 0
- Plant response rating, Soybean (soybean; [2]): 0
- Plant response rating, Soybean (soybean; [3]): 0
- Soybean plant response rating (soybean; [6]): 0
- Soybean plant response rating (soybean; [7]): 4
- Sugarbeets plant response rating (sugar beet; [4]): 0
- Sugarbeets plant response rating (sugar beet; [5]): 0
- Plant response rating, Sugarbeets (sugar beet; [1]): 2
- Plant response rating, Sugarbeets (sugar beet; [2]): 0
- Plant response rating, Sugarbeets (sugar beet; [3]): 0
- Sugarbeets plant response rating (sugar beet; [6]): 0
- Sugarbeets plant response rating (sugar beet; [7]): 0
- Velvetleaf plant response rating (velvetleaf; [5]): 0
- Plant response rating, Velvetleaf (velvetleaf; [1]): 0
- Plant response rating, Velvetleaf (velvetleaf; [2]): 0
- Plant response rating, Velvetleaf (velvetleaf; [3]): 0
- Velvetleaf plant response rating (velvetleaf; [6]): 0
- Velvetleaf plant response rating (velvetleaf; [7]): 0
- Wheat plant response rating (wheat; [4]): 0
- Wheat plant response rating (wheat; [5]): 0
- Plant response rating, Wheat (wheat; [1]): 0
- Plant response rating, Wheat (wheat; [2]): 0
- Plant response rating, Wheat (wheat; [3]): 0
- Wheat plant response rating (wheat; [6]): 0
- Wheat plant response rating (wheat; [7]): 0
- Wild oats plant response rating (wild oat; [4]): 0
- Wild oats plant response rating (wild oat; [5]): 0
- Plant response rating, Wild oats (wild oat; [2]): 0
- Plant response rating, Wild oats (wild oat; [3]): 0
- Wild oats plant response rating (wild oat; [6]): 0
- Wild oats plant response rating (wild oat; [7]): 0
- Nutsedge plant response rating (purple nutsedge; [4]): 0
- Nutsedge plant response rating (purple nutsedge; [5]): 0
- Plant response rating, Nutsedge (purple nutsedge; [1]): 0
- Plant response rating, Nutsedge (purple nutsedge; [2]): 0
- Plant response rating, Nutsedge (purple nutsedge; [3]): 0
- Nutsedge plant response rating (purple nutsedge; [6]): 0
- Nutsedge plant response rating (purple nutsedge; [7]): 0
- Nutsedge plant response rating (purple nutsedge; [8]): 0
